Source: ChEMBL document CHEMBL1153788, “Bioactive diterpene derivatives from the marine sponge Spongionella sp” (J Nat Prod, 2009)

What was measured:
[1] = system: PBMC; assay: Cytotoxicity against human PBMC cells assessed as decrease in luminescence after 24 hrs by luminescent cell viability assay; format: cell-based
[2] = system: K562; assay: Cytotoxicity against human K562 cells assessed as decrease in luminescence after 24 hrs by luminescent cell viability assay; format: functional, cell-based; conditions: K562, 24 h

Structure (SMILES) | IC50 [1] [µM] | IC50 [2] [µM]
CC(=O)O[C@H]1O[C@H]2O[C@H]3OC(=O)/C(=C\CC4(OC(C)=O)CCCC(C)(C)C4)[C@H]3[C@H]2[C@@H]1OC(C)=O (stereo partly specified) [GRACILIN J] | 30 | 15
CC(=O)O[C@H]1O[C@H]2O[C@H]3OC(=O)/C(=C\C4CCCC(C)(C)C4)[C@H]3[C@H]2[C@@H]1OC(C)=O (stereo partly specified) [GRACILIN K] | 9 | 8.5
CC(=O)O[C@@H]1O[C@H]2OC(=O)[C@H](C)C3=C([C@@]4(C)CCCC(C)(C)C4)CC[C@@H]1[C@H]32 | 4.5 | 2.3
